Each block holds one compound with its values, some of them ahead of it.
Key:
[1] = test system: Botrytis cinerea on tomatoes; assay: Greenhouse crop test in combination with commercial fungicide; assay type: in vivo; settings: for control of Botrytis by Amistar in combination with test compound: Amistar 0.03 L/ha; for activity against Botrytis of Balaya in combination with test compound: compared to Balaya alone; for control of Botrytis by Imtrex in combination with test compound: Imtrex 0.005 L/ha, compared to Imtrex alone or with Roux Compound 15 at 30 ppm; for control of Botrytis by Proline in combination with test compound: Proline 0.00075 L/ha, compared to Proline alone
Procedure: (§1) Method 3: Greenhouse Crop Tests
(§2) In this method, exemplary compounds were evaluated for their ability to control Zymoseptoria tritici on wheat, Botrytis cinerea on tomatoes, Asian Soya Rust (Phakopsora pachyrhizi) on soybean, and Brown Rust (Puccinia recondita) on wheat, in a controlled greenhouse environment in combination with one of four fungicides, Amistar, Imtrex, Proline or Balaya. In these studies, soybean cultivar Siverka, tomato (Money maker) and wheat plants (JB Diego) were used. Seeds were sown in 9 cm diameter pots to a depth of 1 to 2 cm using Petersfield potting compost (75% medium grade peat, 12% screened sterilized loam, 3% medium grade vermiculite, 10% grit (5 mm screened, lime free), 1.5 kg PG mix per m3, lime to pH5.5-6.0 and wetting agent (Vitax Ultrawet 200 ml per m3) and germinated/grown at 23° C. under a 16 h day/8 h night light regime. Plants were treated two to three weeks after sowing when they were at the BBCH 11 growth stage (first pair of true leaves (unifoliate) unfolded. A track sprayer was used to treat the plants with the mixture of commercial fungicide and test compound using a water volume of 200 L/ha. Plants were inoculated with the appropriate fungi (pathogen) 24 hours after treatment. Fungal pathogens used were Botrytis cinerea (Grey mold on tomato plants), Zymoseptoria tritici (Septoria leaf blotch on wheat plants), Puccinia triticina (Brown rust on wheat plants) and Phakopsora pachyrhyzi (Asian soy rust on soybean plants). Four replicates were used for each combination of fungicide, pathogen and test compound. Each plant was evaluated once the disease symptoms were fully expressed between seven to twenty days (depending on the pathogen) for % control of the disease. Appropriate controls were used for all experiments, including an ‘inoculation check’ wherein plants were inoculated with their specific pathogen to assess disease levels. Also, each commercial fungicide was tested on its own as a part of each treatment, this being benchmark against which the experimental compounds were evaluated. […] That is, the present compounds, although not fungicidal by themselves, enhance the activity of fungicides.
(§3) In these studies the fungicide was applied at the following rates

Microdochium nivale = assay: In vitro assessment of combination activity with fungicides on agar; assay type: cell-based; settings: fungicide at a rate just below that giving any control; visual assessment of % control;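 further: scored as inactive or active or highly active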
Procedure: (§4) Method 2: In Vitro Assessment of Combination Activity
(§5) Selected compounds were assessed in combination with fungicides against a range of commercially important plant pathogenic fungi.
(§6) The test was conducted as follows. A fungicide was applied to a fungal plant pathogen at a rate slightly below that at which it gave any control, in combination with a suitable dose of the test compound. The test compound was recorded as active if control of the pathogen was observed.
(§7) In more detail, the test was conducted as follows. For each combination of fungicide, pathogen and test compound, the following wells were used. Well 1 contained a fungal pathogen growing on agar, and a fungicide at a rate just below that at which it gave any control of the pathogen. Well 2 was the same as Well 1, except that the test compound was also added at Rate 1. Well 3 was the same as Well 2, except that the test compound was added at Rate 2, where Rate 2 was higher than Rate 1. Finally, as a benchmark, Well 4 was the same as Well 1, except that it contained the fungicide at a higher rate, at which it gave partial control of the pathogen. Each of the Wells 1 to 4 were run in duplicate, giving a total of 8 wells for each combination of fungicide, pathogen and test compound. For each well, after a suitable period of incubation, a visual assessment of the % control of the pathogen by the fungicide was made.
(§8) The following fungicides were used in this assay: azoxystrobin, fluxapyroxad, and desthio prothioconazole. The following fungal pathogens were used in this assay. First, a strain of Zymoseptoria tritici with a reduced susceptibility to strobilurin fungicides; second a strain of Zymoseptoria tritici with a reduced susceptibility to SDHI fungicides (i.e., those that inhibit succinate dehydrogenase); and third, Microdochium nivale.

[2] = test system: Zymoseptoria tritici with a reduced susceptibility to SDHI fungicides; assay: as above; assay type: cell-based; settings: fungicide at a rate just below that giving any control; visual assessment of % control;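 further: scored as inactive or active or highly active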
Procedure: as §4, §5, §6, §7, §8

[3] = test system: Zymoseptoria tritici with a reduced susceptibility to strobilurin fungicides; assay: as above; assay type: cell-based; settings: fungicide at a rate just below that giving any control; visual assessment of % control;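 further: scored as inactive or active or highly active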
Procedure: as §4, §5, §6, §7, §8

apyrase = assay: In vitro apyrase assay (screen for apyrase inhibitors, phosphate release read at 630 nm); assay type: biochemical; settings: inhibitor conc at 1 mM; 1 hr at room temperature; rounded average of two assay results
Procedure: Method 1: In Vitro Apyrase Assay: Apyrase inhibitors useful as enhancers of pesticidal activity are assessed using an in vitro assay. The method of Windsor, Bio Techniques 33:1024-1030 (November 2002) was used as follows: Screen for Apyrase Inhibitors - 96 well plates were used for the assay: (Greiner bio-one: REF-655901-96 well, PS, F-bottom, Clear, Non-binding) Buffers: • Reaction Buffer: 60 mM Hepes; 3 mM MgCl2, 3 mM CaCl2 and 3 mM ATP (pH 6.5) • Development Buffer A: 2% aqueous ammonium molybdate • Development Buffer B: 11% ascorbic acid in 37.5% TCA in water • Stop buffer C: 2% trisodium citrate in 2% acetic acid solution in water • Add 100 μl of reaction buffer to each well. • Add […] (control) or inhibitor/compound or compounds such as […] or orthovanadate to each well. […] A blank cell indicates either <10% observed inhibition or a large difference between repetitions. In certain examples, the lack of observed inhibition is due to a lack of solubility of the compound under assay conditions, rather than a lack of apyrase inhibitory activity. Roux compound 15 inhibited apyrase in this assay at about 60%.

[4] = test system: Brown Rust (Puccinia recondita) on wheat; assay: Greenhouse crop test in combination with commercial fungicide; assay type: in vivo; settings: Imtrex 0.35 L/ha; test compound at 20 ppm
Procedure: as §1, §2, §3

[5] = test system: Zymoseptoria tritici on wheat; assay: as above; assay type: in vivo; settings: test compound at 20 ppm; for control of Zymoseptoria tritici by Balaya in combination with test compound: Balaya 0.0015 L/ha, compared to Balaya alone or with Roux Compound 15 at 30 ppm; for control of Zymoseptoria tritici by Proline in combination with test compound: Proline 0.0075 L/ha, compared to Proline alone and with Roux Compound 15
Procedure: as §1, §2, §3

[6] = test system: Asian Soya Rust (Phakopsora pachyrhizi) on soybean; assay: as above; assay type: in vivo; settings: test compound at 20 ppm
Procedure: as §1, §2, §3

[7] = test compound rate not printed (same rate for both, the higher rate), compared to Amistar alone
[8] = Balaya 0.0015 L/ha, test compound at 15 ppm

Structure (SMILES): C/C(=N\NC(=O)c1cccc(F)c1)c1ccccn1 [I-4, (E)-3-fluoro-N′-(1-(pyridin-2-yl)ethylidene)benzohydrazide]
control of Botrytis by Amistar in combination with test compound ([1]; test compound at 15 ppm, compared to Amistar with Roux Compound 15 at 15 ppm): much higher levels of control
control of Botrytis by Amistar in combination with test compound [1, 7]: substantially higher than with Amistar alone
activity against Botrytis of Balaya in combination with test compound [1, 8]: significantly more active
control of Botrytis by Imtrex in combination with test compound ([1]; test compound at 30 ppm): far superior control
control of Botrytis by Proline in combination with test compound ([1]; test compound at 30 ppm): notably higher than with Proline alone
activity in combination with azoxystrobin (Microdochium nivale): significant activity
activity in combination with desthio prothioconazole (Microdochium nivale): significant activity
activity in combination with fluxapyroxad (Microdochium nivale): significant activity
activity in combination with azoxystrobin [2]: significant activity
activity in combination with desthio prothioconazole [2]: significant activity
activity in combination with fluxapyroxad [2]: significant activity
activity in combination with azoxystrobin [3]: significant activity
activity in combination with desthio prothioconazole [3]: significant activity
activity in combination with fluxapyroxad [3]: significant activity
% Inhibition of Apyrase (apyrase): 24%

Structure (SMILES): C/C(=N\NC(=O)c1cccc(NS(C)(=O)=O)c1)c1ccc2ccccc2c1 [I-214, (E)-N-(3-(2-(1-(naphthalen-2-yl)ethylidene)hydrazine-1-carobnyl)phenyl)methanesulfonamide]
control of Botrytis by Balaya in combination with test compound ([1]; Balaya 0.0015 L/ha, test compound at 20 ppm, compared to Balaya alone or with Roux Compound 15 at 30 ppm): notably superior control
control of Botrytis by Imtrex in combination with test compound ([1]; test compound at 20 ppm): notably superior control
activity of Imtrex against Brown Rust with addition of test compound [4]: substantially enhanced
control of Zymoseptoria tritici by Amistar in combination with test compound ([5]; Amistar 0.1 L/ha, compared to Amistar alone or with Roux Compound 15 at 30 ppm): notably superior control
control of Zymoseptoria tritici by Balaya in combination with test compound [5]: notably superior control
control of Zymoseptoria tritici by Imtrex in combination with test compound ([5]; Imtrex 0.02 L/ha, similar to Imtrex with Roux Compound 15 at 15 and 30 ppm): superior control to Imtrex or Proline alone
control of Zymoseptoria tritici by Proline in combination with test compound [5]: superior control to Imtrex or Proline alone
activity of Amistar against Asian Soybean Rust with addition of test compound ([6]; Amistar 0.02 L/ha): substantially enhanced
activity of Balaya against Asian Soybean Rust with addition of test compound ([6]; Balaya 0.03 L/ha): substantially enhanced
activity of Proline against Asian Soybean Rust with addition of test compound ([6]; Proline 0.15 L/ha): substantially enhanced
activity in combination with fluxapyroxad (Microdochium nivale): significant activity
activity in combination with desthio prothioconazole [2]: significant activity
activity in combination with desthio prothioconazole [3]: significant activity
% Inhibition of Apyrase (apyrase): 55%

Structure (SMILES): COc1ccc2cc(/C(C)=N/NC(=O)c3ccc4c(c3)OCO4)ccc2c1 [I-13, (E)-N′-(1-(6-methoxynaphthalen-2-yl)ethylidene)benzo[d][1,3]dioxole-5-carbohydrazide]
% Inhibition of Apyrase (apyrase): 16%

Structure (SMILES): CCCC/C=N/NC(=O)c1ccccc1 [I-9, (E)-N′-pentylidenebenzohydrazide]
activity in combination with azoxystrobin (Microdochium nivale): significant activity
activity in combination with desthio prothioconazole [2]: significant activity
% Inhibition of Apyrase (apyrase): 19%

Structure (SMILES): C/C(=N\NC(=O)c1cccc(S(=O)(=O)Nc2ccccc2Cl)c1)c1ccc2ccccc2c1 [I-1, (E)-N-(2-chlorophenyl)-3-(2-(1-(naphthalen-2-yl)ethylidene)hydrazine-1-carbonyl)benzenesulfonamide]
% Inhibition of Apyrase (apyrase): 74%

Second part, led by results:

% Inhibition of Apyrase (apyrase): 10%
Structure (SMILES): C/C(=N\NC(=O)c1cc(C)ncn1)c1ccc2ccccc2c1 [I-223, (E)-6-methyl-N′-(1-(naphthalen-2-yl)ethylidene)pyrimidine-4-carbohydrazide]
control of Zymoseptoria tritici by Balaya in combination with test compound [5]: notable superior results
control of Zymoseptoria tritici by Proline in combination with test compound [5]: notable superior results
activity in combination with fluxapyroxad (Microdochium nivale): significant activity
activity in combination with desthio prothioconazole [3]: significant activity

% Inhibition of Apyrase (apyrase): about 60%
Structure (SMILES): C/C(=N\NC(=O)c1cccc(C)c1)c1ccc2ccccc2c1 [Roux compound 15, reference compound]
control of Botrytis by Amistar in combination with test compound [1, 7]: substantially higher than with Amistar alone
activity against Botrytis of Balaya in combination with test compound [1, 8]: no more active against Botrytis than Balaya alone
control of Botrytis by Proline in combination with test compound ([1]; test compound at 30 ppm): notably higher than with Proline alone
activity in combination with azoxystrobin (Microdochium nivale): no activity
activity in combination with desthio prothioconazole (Microdochium nivale): no activity
activity in combination with fluxapyroxad (Microdochium nivale): no activity
activity in combination with azoxystrobin [2]: no activity
activity in combination with desthio prothioconazole [2]: no activity
activity in combination with fluxapyroxad [2]: no activity
activity in combination with azoxystrobin [3]: no activity
activity in combination with desthio prothioconazole [3]: no activity
activity in combination with fluxapyroxad [3]: no activity

% Inhibition of Apyrase (apyrase): 44%
Structure (SMILES): C/C(=N\NC(=O)c1cccc(C)c1)c1ccc(C)c(C)c1 [I-217, (E)-N′-(1-(3,4-dimethylphenyl)ethylidene)-3-methylbenzohydrazide]

% Inhibition of Apyrase (apyrase): 56%
Structure (SMILES): C/C(=N\NC(=O)c1cccc(C)n1)c1ccc2ccccc2c1 [I-211, (E)-6-methyl-N′-(1-(naphthalen-2-yl)ethylidene)picolinohydrazide]

% Inhibition of Apyrase (apyrase): 46%
Structure (SMILES): C/C(=N\NC(=O)c1cccc(C)c1)c1cnc2ccccc2c1 [I-215, (E)-3-methyl-N′-(1-(quinolin-3-yl)ethylidene)benzohydrazide]
activity in combination with fluxapyroxad (Microdochium nivale): significant activity

Source: patent publication US20240101510A1, “APYRASE INHIBITORS” (Texas Crop Science, priority 2022, published 2024)
